From ChEMBL document CHEMBL4007467, “Effects of 6-paradol, an unsaturated ketone from gingers, on cytochrome P450-mediated drug metabolism” (Bioorg Med Chem Lett, 2017)

What was measured:
Type in all cases: ADME
CYP2B6 = target: T1, CYP2B6 (Homo sapiens, UniProt P20813); assay: Inhibition of CYP2B6 in human liver microsomes assessed as enzyme-mediated metabolite formation at 0.1 uM using bupropion as substrate incubated for 5 mins followed by NADPH addition measured after 30 mins by LC-MS/MS analysis relative to control; design: scale not given: the % may be the effect or the level left; settings: probe bupropion, read-out: Activity
T1 sequence (P20813 whole entry): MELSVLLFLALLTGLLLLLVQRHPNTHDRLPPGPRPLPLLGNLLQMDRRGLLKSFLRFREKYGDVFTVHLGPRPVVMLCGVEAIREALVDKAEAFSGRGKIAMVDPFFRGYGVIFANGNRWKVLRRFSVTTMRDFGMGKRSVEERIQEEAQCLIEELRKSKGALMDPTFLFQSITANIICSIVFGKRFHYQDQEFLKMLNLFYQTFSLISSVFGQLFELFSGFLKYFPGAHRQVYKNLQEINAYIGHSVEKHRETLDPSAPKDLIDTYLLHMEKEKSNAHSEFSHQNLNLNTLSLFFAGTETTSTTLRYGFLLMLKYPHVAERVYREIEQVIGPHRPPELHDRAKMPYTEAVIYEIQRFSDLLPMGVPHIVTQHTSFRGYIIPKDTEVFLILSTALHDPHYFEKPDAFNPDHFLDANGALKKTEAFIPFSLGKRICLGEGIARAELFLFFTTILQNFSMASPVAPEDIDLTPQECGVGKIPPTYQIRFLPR

CYP2C8 [1] = target: T2, CYP2C8 (Homo sapiens, UniProt P10632); assay: Inhibition of CYP2C8 in human liver microsomes assessed as enzyme-mediated metabolite formation at 0.1 uM using paclitaxel as substrate incubated for 5 mins followed by NADPH addition measured after 30 mins by LC-MS/MS analysis relative to control; design: scale not given: the % may be the effect or the level left; settings: probe paclitaxel, read-out: Activity
T2 sequence (P10632 whole entry): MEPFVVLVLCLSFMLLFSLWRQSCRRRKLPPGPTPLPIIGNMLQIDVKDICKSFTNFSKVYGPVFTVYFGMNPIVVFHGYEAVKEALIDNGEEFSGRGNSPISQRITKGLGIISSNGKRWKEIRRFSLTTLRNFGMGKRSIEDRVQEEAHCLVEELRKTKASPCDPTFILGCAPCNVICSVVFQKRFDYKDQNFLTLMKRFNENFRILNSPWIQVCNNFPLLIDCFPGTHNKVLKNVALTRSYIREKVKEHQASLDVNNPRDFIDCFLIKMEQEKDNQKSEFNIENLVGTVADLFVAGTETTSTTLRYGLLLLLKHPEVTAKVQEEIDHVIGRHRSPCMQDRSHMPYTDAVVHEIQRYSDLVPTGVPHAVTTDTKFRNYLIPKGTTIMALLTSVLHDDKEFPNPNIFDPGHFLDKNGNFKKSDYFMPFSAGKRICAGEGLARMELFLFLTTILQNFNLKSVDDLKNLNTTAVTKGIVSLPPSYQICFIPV

CYP2C8 [2] = target: T2, CYP2C8; assay: Inhibition of CYP2C8 in human liver microsomes assessed as enzyme-mediated metabolite formation at 10 uM using paclitaxel as substrate incubated for 5 mins followed by NADPH addition measured after 30 mins by LC-MS/MS analysis relative to control; design: scale not given: the % may be the effect or the level left; settings: probe paclitaxel, read-out: Activity
CYP2C8 [3] = target: T2, CYP2C8; assay: Inhibition of CYP2C8 in human liver microsomes assessed as enzyme-mediated metabolite formation at 30 uM using paclitaxel as substrate incubated for 5 mins followed by NADPH addition measured after 30 mins by LC-MS/MS analysis relative to control; design: scale not given: the % may be the effect or the level left; settings: probe paclitaxel, read-out: Activity
CYP2C19 = CYP2C19 (Homo sapiens, UniProt P33261); assay: Inhibition of CYP2C19 in human liver microsomes assessed as enzyme-mediated metabolite formation at 0.3 uM using (S)-mephenytoin as substrate incubated for 5 mins followed by NADPH addition measured after 30 mins by LC-MS/MS analysis relative to control; design: scale not given: the % may be the effect or the level left; settings: probe (S)-mephenytoin, read-out: Activity
Cytochrome P450 2D6 = Cytochrome P450 2D6 (Homo sapiens, UniProt P10635); assay: Inhibition of CYP2D6 in human liver microsomes assessed as enzyme-mediated metabolite formation using dextromethorphan as substrate incubated for 5 mins followed by NADPH addition measured after 30 mins by LC-MS/MS analysis
CYP3A4 [4] = target: T3, CYP3A4 (Homo sapiens, UniProt P08684); assay: Inhibition of CYP3A4 in human liver microsomes assessed as enzyme-mediated metabolite formation at 30 uM using midazolam as substrate incubated for 5 mins followed by NADPH addition measured after 30 mins by LC-MS/MS analysis relative to control; design: scale not given: the % may be the effect or the level left; settings: probe midazolam, read-out: Activity
CYP1A2 = target: T4, CYP1A2 (Homo sapiens, UniProt P05177); assay: Inhibition of CYP1A2 in human liver microsomes assessed as enzyme-mediated metabolite formation at 10 uM using phenacetin as substrate preincubated for 20 mins followed by substrate addition measured after 30 mins in presence of NADPH by LC-MS/MS analysis relative to control; design: scale not given: the % may be the effect or the level left; settings: probe phenacetin, read-out: Activity
T4 sequence (P05177 whole entry): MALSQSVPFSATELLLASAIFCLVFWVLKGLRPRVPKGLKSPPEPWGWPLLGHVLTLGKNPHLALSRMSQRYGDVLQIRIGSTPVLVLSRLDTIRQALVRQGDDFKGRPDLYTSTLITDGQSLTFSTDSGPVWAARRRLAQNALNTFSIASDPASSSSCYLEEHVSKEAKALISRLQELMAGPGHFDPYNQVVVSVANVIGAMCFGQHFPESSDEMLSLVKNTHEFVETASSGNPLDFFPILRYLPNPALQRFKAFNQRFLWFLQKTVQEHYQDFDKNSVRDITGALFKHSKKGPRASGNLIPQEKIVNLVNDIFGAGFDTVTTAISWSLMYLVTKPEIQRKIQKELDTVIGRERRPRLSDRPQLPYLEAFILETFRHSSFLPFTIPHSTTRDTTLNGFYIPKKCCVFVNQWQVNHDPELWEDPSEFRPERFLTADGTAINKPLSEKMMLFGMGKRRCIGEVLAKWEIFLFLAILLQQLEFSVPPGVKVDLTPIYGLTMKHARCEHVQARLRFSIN

CYP2C8 [5] = target: T2, CYP2C8; assay: Inhibition of CYP2C8 in human liver microsomes assessed as enzyme-mediated metabolite formation at 1 uM using paclitaxel as substrate preincubated for 20 mins followed by substrate addition measured after 30 mins in presence of NADPH by LC-MS/MS analysis relative to control; design: scale not given: the % may be the effect or the level left; settings: probe paclitaxel, read-out: Activity
CYP2C8 [6] = target: T2, CYP2C8; assay: Inhibition of CYP2C8 in human liver microsomes assessed as enzyme-mediated metabolite formation at 10 uM using paclitaxel as substrate preincubated for 20 mins followed by substrate addition measured after 30 mins in presence of NADPH by LC-MS/MS analysis relative to control; design: scale not given: the % may be the effect or the level left; settings: probe paclitaxel, read-out: Activity
CYP2D6 = CYP2D6 (Homo sapiens, UniProt P10635); assay: Inhibition of CYP2D6 in human liver microsomes assessed as enzyme-mediated metabolite formation at 3 uM using dextromethorphan as substrate preincubated for 20 mins followed by substrate addition measured after 30 mins in presence of NADPH by LC-MS/MS analysis relative to control; design: scale not given: the % may be the effect or the level left; settings: probe dextromethorphan, read-out: Activity
CYP3A4 [7] = target: T3, CYP3A4; assay: Inhibition of CYP3A4 in human liver microsomes assessed as enzyme-mediated metabolite formation at 10 uM using midazolam as substrate preincubated for 20 mins followed by substrate addition measured after 30 mins in presence of NADPH by LC-MS/MS analysis relative to control; design: scale not given: the % may be the effect or the level left; settings: probe midazolam, read-out: Activity

T3 sequence (P08684 whole entry): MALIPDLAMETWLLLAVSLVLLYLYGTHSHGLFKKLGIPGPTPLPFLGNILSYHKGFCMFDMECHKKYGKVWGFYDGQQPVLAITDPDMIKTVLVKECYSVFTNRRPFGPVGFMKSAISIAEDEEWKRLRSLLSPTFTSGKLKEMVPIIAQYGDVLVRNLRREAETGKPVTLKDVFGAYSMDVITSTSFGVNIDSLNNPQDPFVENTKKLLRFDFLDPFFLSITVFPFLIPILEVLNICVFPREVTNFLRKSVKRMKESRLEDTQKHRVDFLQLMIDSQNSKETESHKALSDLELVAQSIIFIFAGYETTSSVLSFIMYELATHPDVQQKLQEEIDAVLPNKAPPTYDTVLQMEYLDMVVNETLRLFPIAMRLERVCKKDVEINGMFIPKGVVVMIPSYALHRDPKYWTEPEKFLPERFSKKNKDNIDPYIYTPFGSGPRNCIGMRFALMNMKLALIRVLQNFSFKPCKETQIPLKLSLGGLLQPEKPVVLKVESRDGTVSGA
Sequence of CYP2D6 (P10635 whole entry): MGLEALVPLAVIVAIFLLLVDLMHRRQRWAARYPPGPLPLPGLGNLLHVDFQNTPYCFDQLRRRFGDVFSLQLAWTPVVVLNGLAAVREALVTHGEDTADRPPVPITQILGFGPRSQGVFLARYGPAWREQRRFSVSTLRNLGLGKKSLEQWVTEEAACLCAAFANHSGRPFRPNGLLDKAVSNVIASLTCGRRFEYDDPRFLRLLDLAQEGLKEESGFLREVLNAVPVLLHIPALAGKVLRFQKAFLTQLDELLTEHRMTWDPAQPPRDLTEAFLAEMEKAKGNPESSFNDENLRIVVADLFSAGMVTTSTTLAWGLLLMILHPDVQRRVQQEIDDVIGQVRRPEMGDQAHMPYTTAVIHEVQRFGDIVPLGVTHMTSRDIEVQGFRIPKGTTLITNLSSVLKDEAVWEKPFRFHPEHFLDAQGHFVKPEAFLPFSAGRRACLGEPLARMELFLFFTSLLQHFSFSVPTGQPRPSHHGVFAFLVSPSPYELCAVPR
Sequence of Cytochrome P450 2D6 (P10635 whole entry): as above
Sequence of CYP2C19 (P33261 whole entry): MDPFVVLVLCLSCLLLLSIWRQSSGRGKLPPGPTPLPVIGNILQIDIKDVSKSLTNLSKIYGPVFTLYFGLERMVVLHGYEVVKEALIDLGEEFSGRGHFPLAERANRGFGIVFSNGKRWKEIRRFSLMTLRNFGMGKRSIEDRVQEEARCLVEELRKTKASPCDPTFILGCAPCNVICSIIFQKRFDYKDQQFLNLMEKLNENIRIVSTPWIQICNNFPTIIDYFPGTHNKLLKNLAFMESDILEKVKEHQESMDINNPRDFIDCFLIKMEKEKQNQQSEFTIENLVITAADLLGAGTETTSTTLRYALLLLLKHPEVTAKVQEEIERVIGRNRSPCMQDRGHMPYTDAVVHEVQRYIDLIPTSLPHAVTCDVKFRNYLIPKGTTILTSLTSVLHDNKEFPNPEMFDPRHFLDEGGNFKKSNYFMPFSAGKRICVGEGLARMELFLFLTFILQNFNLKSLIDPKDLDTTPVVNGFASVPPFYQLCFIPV

- activity at 0.5 h, 0.1 µM (CYP2B6): 93.6%
- activity at 0.5 h, 0.1 µM (CYP2C8 [1]): 88.7%
- activity at 0.5 h, 10 µM (CYP2C8 [2]): 45.5%
- activity at 0.5 h, 30 µM (CYP2C8 [3]): 35.5%
- activity at 0.5 h, 0.3 µM (CYP2C19): 85.8%
- IC50 (Cytochrome P450 2D6): > 30 µM
- activity at 0.5 h, 30 µM (CYP3A4 [4]): 72%
- activity at 0.5 h, 10 µM (CYP1A2): 59%
- activity at 0.5 h, 1 µM (CYP2C8 [5]): 61.5%
- activity at 0.5 h, 10 µM (CYP2C8 [6]): 49%
- activity at 0.5 h, 3 µM (CYP2D6): 103%
- activity at 0.5 h, 10 µM (CYP3A4 [7]): 110%
Structure (SMILES): CCCCCCCC(=O)CCc1ccc(O)c(OC)c1
